Results on 25 molecules are retold here after ChEMBL document CHEMBL4610009, “Modification of the lead molecule: Tryptophan and piperidine appended triazines reversing inflammation and hyeperalgesia in rats” (Bioorg Med Chem, 2020).

One may read the IC50 as the midpoint of a concentration-inhibition curve. As usually defined, the solubility is how much of the substance goes into solution per volume. A higher solubility goes with a readily soluble substance. A word on the inhibition in vivo: it is the drop in the measured response relative to a control, in per cent.

In brackets after ≈: the same amount, converted by molar mass. Activity calls are given as the source filed them. The calls are words filed in the database; no cut-off is given here.

Series [1] deals with T1, Prostaglandin G/H synthase 1 (Ovis aries, UniProt P05979).
T1 sequence (P05979 whole entry): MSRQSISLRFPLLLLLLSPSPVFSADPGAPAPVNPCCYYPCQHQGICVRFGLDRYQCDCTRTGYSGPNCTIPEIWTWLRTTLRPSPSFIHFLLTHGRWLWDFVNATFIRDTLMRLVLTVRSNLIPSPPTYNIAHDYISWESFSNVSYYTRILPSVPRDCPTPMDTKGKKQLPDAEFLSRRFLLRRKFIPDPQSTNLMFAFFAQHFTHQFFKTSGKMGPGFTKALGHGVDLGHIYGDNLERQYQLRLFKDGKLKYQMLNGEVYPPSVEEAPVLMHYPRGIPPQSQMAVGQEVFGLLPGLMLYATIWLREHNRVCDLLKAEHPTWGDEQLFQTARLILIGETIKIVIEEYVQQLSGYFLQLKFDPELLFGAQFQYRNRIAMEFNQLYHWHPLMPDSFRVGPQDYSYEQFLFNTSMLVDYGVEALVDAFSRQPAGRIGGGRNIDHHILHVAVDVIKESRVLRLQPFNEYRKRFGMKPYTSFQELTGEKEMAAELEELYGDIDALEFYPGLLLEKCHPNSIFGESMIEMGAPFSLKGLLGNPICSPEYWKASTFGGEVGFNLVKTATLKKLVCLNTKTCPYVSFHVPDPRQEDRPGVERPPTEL
The series is described as follows: Inhibition of ovine COX1 using arachidonic acid as substrate incubated for 10 mins followed by substrate addition and measured after 2 mins by EIA assay.

The test system of series [2] is Rattus norvegicus. The series is described as follows: Analgesic activity in Wistar rat assessed as reduction in acetic acid-induced writhing at 10 mg/kg, ip incubated for 30 mins followed by acetic acid addition and observed for 30 mins. Format: functional, organism-based. A general note: In writhing tests, fewer writhes than in controls are read as antinociception.

Series [3] is described as follows: Ratio of drug level in brain to blood (unknown origin). As to conditions: read-out: BBR. Format: ADME, tissue-based.
A short description of series [4]: Protein binding in plasma (unknown origin). Format: ADME, cell-free. As to conditions: read-out: PPB (converted).
Series [5] in a line: Solubility of compound in pure water. Format: physicochemical.
Series [6] can be described thus: Drug absorption in human intestine. Format: ADME, tissue-based. As to conditions: read-out: Drug absorption.
The target in series [7] is Prostaglandin G/H synthase 1 (Homo sapiens) (UniProt P23219). The series is described as follows: Inhibition of calcium ionophore-activated COX1 in human whole blood assessed as TXB2 level at 1 uM by ELISA. Format: tissue-based.
Series [8] has as its system Rattus norvegicus. Put plainly: Analgesic activity in Wistar rat assessed as reduction in formalin-induced flitching in inflammatory phase at 10 mg/kg, ip incubated for 30 mins followed by formalin addition and observed for 60 mins. Format: functional, organism-based.
Series [9] relates to Rattus norvegicus. The series is described as follows: Analgesic activity in Wistar rat assessed as reduction in formalin-induced flitching in neurogenic phase at 10 mg/kg, ip incubated for 30 mins followed by formalin addition and observed for 60 mins. Format: functional, organism-based.
The test system of series [10] is Rattus norvegicus. The series is described as follows: Analgesic activity in Wistar rat assessed as reduction in acetic acid-induced writhing at 10 mg/kg, ip incubated for 30 mins followed by acetic acid addition and observed for 30 mins relative to control. Format: functional. As to conditions: 0.5 h.
Series [11] concerns the target T2, Prostaglandin G/H synthase 2 (Rattus norvegicus) (UniProt P35355).
T2 sequence (whole entry): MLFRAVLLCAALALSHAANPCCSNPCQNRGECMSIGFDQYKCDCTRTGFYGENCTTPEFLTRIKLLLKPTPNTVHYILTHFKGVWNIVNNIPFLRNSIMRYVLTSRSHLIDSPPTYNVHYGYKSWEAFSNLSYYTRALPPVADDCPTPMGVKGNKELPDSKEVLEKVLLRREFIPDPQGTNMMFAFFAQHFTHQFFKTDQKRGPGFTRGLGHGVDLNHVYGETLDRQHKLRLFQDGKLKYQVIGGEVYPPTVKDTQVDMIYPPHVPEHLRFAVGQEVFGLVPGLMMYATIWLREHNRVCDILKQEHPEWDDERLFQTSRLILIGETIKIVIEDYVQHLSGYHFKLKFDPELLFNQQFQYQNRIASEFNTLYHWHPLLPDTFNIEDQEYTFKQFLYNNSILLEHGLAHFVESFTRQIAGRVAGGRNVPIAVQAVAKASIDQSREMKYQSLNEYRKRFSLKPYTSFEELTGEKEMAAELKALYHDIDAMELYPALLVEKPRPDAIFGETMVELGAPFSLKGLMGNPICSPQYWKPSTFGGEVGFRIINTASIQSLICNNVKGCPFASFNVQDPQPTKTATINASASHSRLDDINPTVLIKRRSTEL
Put plainly: In vivo inhibition of COX2 in Wistar rat assessed as reduction in formalin-induced COX2 expression at 10 mg/kg, ip incubated for 30 mins followed by formalin addition and measured after 2 hrs by immunofluorescence based assay. Format: functional, organism-based.

Series [12] can be described thus: Acute toxicity in Wistar rat assessed as behavioral alterations at 2000 mg/kg, po observed for 14 days. Format: organism-based. As to conditions: in vivo, 336 h.
Series [13] can be described thus: Acute toxicity in Wistar rat assessed as effect on kidney at 2000 mg/kg, po measured after 14 days by hematoxylin-eosin staining based light microscopy. Format: organism-based. As to conditions: in vivo, 336 h.
Series [14] can be described thus: Acute toxicity in Wistar rat assessed as effect on liver at 2000 mg/kg, po measured after 14 days by hematoxylin-eosin staining based light microscopy. Format: organism-based. As to conditions: in vivo, 336 h.

Sequence of Prostaglandin G/H synthase 1 (Homo sapiens) (P23219 whole entry): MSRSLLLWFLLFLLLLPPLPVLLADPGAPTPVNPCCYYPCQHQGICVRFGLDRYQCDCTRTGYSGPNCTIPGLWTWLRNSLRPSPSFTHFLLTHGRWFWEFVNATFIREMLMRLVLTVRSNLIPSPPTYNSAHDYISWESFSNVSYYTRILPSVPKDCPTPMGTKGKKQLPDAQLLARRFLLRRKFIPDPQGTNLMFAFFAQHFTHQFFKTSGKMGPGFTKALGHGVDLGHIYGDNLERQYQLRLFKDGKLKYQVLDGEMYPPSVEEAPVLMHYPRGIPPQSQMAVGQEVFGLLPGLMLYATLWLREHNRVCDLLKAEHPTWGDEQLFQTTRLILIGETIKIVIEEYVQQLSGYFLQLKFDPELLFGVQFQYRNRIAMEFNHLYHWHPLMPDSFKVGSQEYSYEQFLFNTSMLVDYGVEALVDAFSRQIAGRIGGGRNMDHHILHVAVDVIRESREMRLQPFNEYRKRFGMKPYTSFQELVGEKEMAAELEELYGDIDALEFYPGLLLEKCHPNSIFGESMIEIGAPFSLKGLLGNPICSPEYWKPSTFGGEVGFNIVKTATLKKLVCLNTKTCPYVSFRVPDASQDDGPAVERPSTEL

With `COC(=O)[C@H](Cc1ccccc1)n1cc(COc2nc(Cl)nc(N3CCOCC3)n2)nn1`, in [1], the half-maximal inhibitory concentration (IC50) was > 10 µM.
In the case of `COC(=O)[C@H](Cc1cn(-c2nc(Cl)nc(Nc3ccc(N4CCOCC4=O)cc3)n2)c2ccccc12)NC(=O)OC(C)(C)C`, in the series on Rattus norvegicus [2], the result was Active.
For the molecule `COC(=O)[C@H](Cc1ccc(O)cc1)n1cc(COc2nc(Cl)nc(N3CCOCC3)n2)nn1`, in series [1], the half-inhibitory concentration (IC50) is > 10 µM.
On the same count and under the same terms, the result for `Clc1nc(OCc2cn(Cc3ccccc3)nn2)nc(N2CCOCC2)n1` reads > 10 µM; that for `COC(=O)[C@H](Cc1ccccc1)n1cc(COc2nc(Cl)nc(N3CCCC3)n2)nn1`, > 10 µM.
Turning to `COC(=O)[C@H](Cc1c[nH]c2ccccc12)n1cc(COc2nc(Cl)nc(N3CCCCC3)n2)nn1`, the IC50 in [1] was > 10 µM.
Consider `N[C@@H](Cc1cn(-c2nc(Cl)nc(N3CCOCC3)n2)c2ccccc12)C(=O)O`, for which the Kp in series [3] was found to be 0.19. The fraction unbound in [4] was 0.324. The solubility in series [5] was determined as 5810 µg/mL (≈ 14.4 mM). Further, the Fa in series [6] was found to be 96.9%. This molecule showed an IC50 in series [1] of 1 µM.
For `COC(=O)[C@@H](N)Cc1ccc(Oc2nc(Cl)nc(N3CCCCC3)n2)cc1`, the IC50 in [1] is > 10 µM.
Take `CC[C@H](C)[C@H](Nc1nc(Cl)nc(Nc2ccc(N3CCOCC3=O)cc2)n1)C(=O)OC`: in the series on Rattus norvegicus [2], the result was Active. In addition, in series [1], the IC50 is > 10 µM.
Molecule `O=C1COCCN1c1ccc(Nc2nc(Cl)nc(OCc3cn(Cc4ccccc4)nn3)n2)cc1` gave an IC50 in [1] of 6 µM.
As for `O=C1COCCN1c1ccc(Nc2nc(Cl)nc(N3CCCC3)n2)cc1`, the Kp in series [3] is 0.01. For the same molecule, the fraction unbound in series [4] is 0.143. Further, in [5], the concentration in solution (solubility) was 4910 µg/mL (≈ 13.1 mM). Besides, the Fa in [6] was found to be 96.8%. Also, the IC50 in series [1] is > 10 µM.
As for `COC(=O)[C@@H](N)Cc1cn(-c2nc(Cl)nc(Nc3ccc(N4CCOCC4=O)cc3)n2)c2ccccc12`, the Kp in [3] amounted to 0.09. Moreover, in series [4], the fraction unbound was 0.124. Further, in series [5], the concentration in solution (solubility) came to 30 µg/mL (≈ 0.0575 mM). Further, the Fa in series [6] worked out at 97.2%. Besides, in series [7], the Activity worked out at 0.9 ng/mL. The outcome in the series with Rattus norvegicus [8] and with Rattus norvegicus [9] was Active. In the series with Rattus norvegicus [10], the inhibition in vivo at 10 mg/kg worked out at 73%. For the same molecule, the inhibition result in [11] is “Active”. The IC50 in series [1] was > 10 µM.
`COC(=O)[C@H](Cc1ccccc1)n1cc(COc2nc(Cl)nc(Nc3ccc(N4CCOCC4=O)cc3)n2)nn1` registered a half-maximal inhibitory concentration (IC50) in series [1] of 8 µM.
Turning to `COC(=O)[C@@H](N)Cc1cn(-c2nc(Cl)nc(N3CCCCC3)n2)c2ccccc12`, the Activity result in series [12] is “Non-Toxic”; in series [13] it was “Non-Toxic”; in series [7] it was 0.84 ng/mL; in [14], “Non-Toxic”. The Kp in series [3] was 0.66. The fraction unbound in series [4] is 0.149. This molecule gave a solubility in series [5] of 740 µg/mL (≈ 1.78 mM). The Fa in series [6] came out at 98.2%. For the same molecule, the result in the series on Rattus norvegicus [8] and in the series with Rattus norvegicus [9] was Active. In addition, the inhibition in vivo at 10 mg/kg in the series on Rattus norvegicus [10] turned out to be 65%. For the same molecule, the inhibition result in series [11] is “Active”. Further, the IC50 in series [1] is > 10 µM.
Consider `Clc1ccc(Nc2nc(Cl)nc(OCc3cn(Cc4ccccc4)nn3)n2)cc1`, for which the half-maximal inhibitory concentration (IC50) in series [1] worked out at 4 µM.
Take `COC(=O)[C@@H](N)Cc1ccc(Oc2nc(Cl)nc(N3CCOCC3)n2)cc1`: the outcome with Rattus norvegicus [2] was Active.
For the molecule `COC(=O)[C@H](Cc1ccccc1)n1cc(COc2nc(Cl)nc(Nc3ccc(Cl)cc3)n2)nn1`, in series [1], the half-maximal inhibitory concentration (IC50) worked out at 5 µM.
Consider `COC(=O)[C@@H]1CCCN1c1nc(Cl)nc(Nc2ccc(N3CCOCC3=O)cc2)n1`, for which the result in the series with Rattus norvegicus [2] was Active.
As for `COC(=O)[C@H](Cc1ccccc1)Nc1nc(Cl)nc(Nc2ccc(N3CCOCC3=O)cc2)n1`, in the series on Rattus norvegicus [2], the result was Active. Also, the IC50 in series [1] was > 10 µM.
As to `Clc1nc(OCc2cn(Cc3ccccc3)nn2)nc(N2CCCC2)n1`, the half-inhibitory concentration (IC50) in [1] stood at 8 µM.
On the same count and under the same terms, the value for `COC(=O)[C@H](Cc1ccc(O)cc1)n1cc(COc2nc(Cl)nc(N3CCCC3)n2)nn1` was > 10 µM; that for `COC(=O)[C@H](Cc1c[nH]c2ccccc12)n1cc(COc2nc(Cl)nc(N3CCOCC3)n2)nn1` was > 10 µM.
Consider `COC(=O)[C@H](Cc1ccc(O)cc1)n1cc(COc2nc(Cl)nc(Nc3ccc(N4CCOCC4=O)cc3)n2)nn1`, for which, in series [1], the half-inhibitory concentration (IC50) was > 10 µM.
For the molecule `O=C(O)c1ccccc1Nc1nc(Cl)nc(Nc2ccc(N3CCOCC3=O)cc2)n1`, in [1], the IC50 is > 10 µM.
In the case of `COc1ccc2c(c1)c(CC(=O)O)c(C)n2C(=O)c1ccc(Cl)cc1` [INDOMETHACIN], the Activity in series [7] was determined as 0.59 ng/mL. In addition, the result in the series with Rattus norvegicus [8] and in the series on Rattus norvegicus [9] was Active. Besides, the inhibition in vivo at 10 mg/kg in the series on Rattus norvegicus [10] came to 70%.
